{
  "source": "patent US20230293628A1",
  "about": "“MEANS AND METHODS FOR TREATING BACTERIAL INFECTIONS” (priority 2016, published 2023)",
  "key": {"[1]": {"tested_on": "Escherichia coli ESBL (CUN E20)"}, "[2]": {"tested_on": "Pseudomonas aeruginosa PS4", "experiment": "CDC Biofilm Reactor, inhibition of biofilm formation", "type": "cell-based", "settings": "with and without levofloxacin, 24 hours treatment, FIG. 8", "procedure": "The data shown in FIG. 8 were obtained in experiments carried out using the Center for Disease Control (CDC) Biofilm Reactor (CBR). In this case, clinical strain Pseudomonas aeruginosa PS4 was incubated in TSB under continuous shaking for 24 hours, followed by additional 24 hours growth with a flow of diluted TSB. Samples received treatments during another 24 hours dissolved at Phosphate Buffer at 37° C. Biofilms were scraped and serially diluted prior to plating and counting. For confocal microscopy, Biofilms were stained using Live/Death BacLight (Life technologies, Carlsbad, California, USA)."}, "[3]": {"tested_on": "TLR2/6-activated keratinocytes", "experiment": "FSL-1 (TLR2/6)-activated keratinocytes: IL-8 ELISA, Western Blot, real-time PCR", "type": "cell-based, human", "settings": "FSL-1 stimulation, 10:1 weight ratio", "procedure": "Thus, the effect of Pep19-2.5 and Pep19-4LF on the toxin (pathogenicity factor) FSL-1 (fibroblast-stimulating lipopeptide), a TLR-2/6 activating compound, was checked.\n(§1) The potential of Peptide 19-2.5 and the structurally related compound Peptide 19-4LF has been investigated for their therapeutic application in bacterial skin infections. Primary human keratinocytes responded to TLR2 (FSL-1) but not TLR4 (LPS) activation by increased IL-8 production which was determined with ELISA. […] To detect phosphorylation of the intracellular proteins Western Blot was performed. Gene expression was evaluated by quantitative real-time PCR. […] In addition to acute inflammation, bacterial infections often result in impaired wound healing. Since re-epithelialization is a critical step in wound repair, we tested whether Peptide 19-2.5 affects keratinocyte migration."}, "[4]": {"tested_on": "Pseudomonas aeruginosa biofilm", "experiment": "Inactivation of biofilm from Pseudomonas aeruginosa with GFP-labelled bacteria", "type": "cell-based", "settings": "short-time treatment (1 h), FIG. 2", "procedure": "FIG. 2: Inactivation of a biofilm from Pseudomonas aeruginosa with GFP-labelled bacteria (GFP: Green-Fluorescent Protein). Living bacteria: white, inactivated bacteria: dark.\nThe micrographics shown that only a small fraction of the surface was covered by live bacteria forming a biofilm after 1 h (B) compared with the untreated one (A)."}, "keratinocyte migration": {"tested_on": "keratinocyte migration", "experiment": "Scratch assay, keratinocyte migration", "type": "cell-based", "procedure": "as §1"}, "[5]": {"tested_on": "open wound with wound infections (Staphylococcus aureus, Parvimonas micra, β-hemolysing Streptococcus, Pseudomonas aeruginosa)", "experiment": "Healing attempt, infected open wound of a patient, topical salve", "type": "in vivo", "settings": "for Effect on wound: topical", "excerpt": "A patient had—due to a cured tumor in the back—an open wound (see picture at t=0). […] Therefore, a conservative wound treatment was initiated. The wound's localization required the involvement of an ambulant nursing service who took over the daily care. Nevertheless, in sporadic intervals, wound infections occurred which inhibited the healing process. […] Over 6 years, all therapeutical approaches with different antibiotics and topically applied salve formulations failed. In November 2014 the patient was informed about the possibility of a, healing attempt′, to which they agreed. […] This therapeutically effect can be explained only from the use of the Aspidasept® salve, since all other parameters were not changed. The wound is now completely closed."}, "[6]": {"tested_on": "monocyte-derived dendritic cells (MoDCs)", "experiment": "LPS-stimulated monocyte-derived dendritic cells: maturation, migration, IL-6", "type": "cell-based", "excerpt": "In monocyte-derived dendritic cells (MoDCs), Pep19-2.5 inhibited LPS-mediated upregulation of the maturation marker CD83 and the co-stimulatory molecule CD80 at a peptide:LPS weight ratio of 1000:1.\nas §1"}, "[7]": {"tested_on": "M. tuberculosis-induced TNF formation of human peripheral blood mononuclear cells", "experiment": "M. tuberculosis supernatant-induced TNFα formation in human mononuclear cells (ELISA)", "type": "cell-based", "settings": "for Inhibition of M. tuberculosis-induced TNF formation (in words): FIG. 5"}},
  "note": "Read-outs that look alike come from different tables or passages of the source. Where no end group is shown, it is not given here.",
  "data": [
    {"compound": "CO/N=C(\\C(=O)N[C@@H]1C(=O)N2C(C(=O)O)=C(CSc3nc(=O)c(O)nn3C)CS[C@H]12)c1csc(N)n1", "note": "[Ceftriaxon, Ceftriaxone, reference compound]", "values": [
      {"measurement": "MIC", "setting": "[1]; individual agents, Mueller-Hinton medium", "value": 16, "unit": "µg/mL"}
    ]},
    {"compound": "GKKYRRFRWKFKGKLFLFG [Peptide 19-4LF, GKKYRRFRWKFKGKLFLFG]", "values": [
      {"measurement": "Inhibition of biofilm formation", "setting": "[2]", "value": "Inhibition of biofilm formation"},
      {"measurement": "MIC", "setting": "[1]; ESBL (CUN E20)", "value": 16, "unit": "µg/mL"},
      {"measurement": "IL-8 release / IL-8 inducing activity of FSL-1", "setting": "[3]", "value": "reduce IL-8 release"},
      {"measurement": "Inactivation of biofilm bacteria", "setting": "[4]", "value": "most bacteria are inactivated"}
    ]},
    {"compound": "N=C(N)NCCC[C@H](NC(=O)[C@H](Cc1ccc(O)cc1)NC(=O)[C@H](CCCCN)NC(=O)[C@H](CCCCN)NC(=O)[C@H](CS)NC(=O)CN)C(=O)N[C@@H](CCCNC(=N)N)C(=O)N[C@@H](Cc1ccccc1)C(=O)N[C@@H](CCCNC(=N)N)C(=O)N[C@@H](Cc1c[nH]c2ccccc12)C(=O)N[C@@H](CCCCN)C(=O)N[C@@H](Cc1ccccc1)C(=O)N[C@@H](CCCCN)C(=O)NCC(=O)N[C@@H](CCCCN)C(=O)N[C@@H](Cc1ccccc1)C(=O)N[C@@H](Cc1c[nH]c2ccccc12)C(=O)N[C@@H](Cc1ccccc1)C(=O)N[C@@H](Cc1c[nH]c2ccccc12)C(=O)NCC(=O)O", "note": "[Peptide 19-2.5]", "values": [
      {"measurement": "Concentration promoting cell migration and accelerating artificial wound closure (as low as)", "setting": "keratinocyte migration", "value": 1, "unit": "ng/mL"},
      {"measurement": "Potency in promoting cell migration relative to TGF-β", "setting": "keratinocyte migration", "value": "equipotent to TGF-β"},
      {"measurement": "MIC", "setting": "[1]; ESBL (CUN E20)", "value": 128, "unit": "µg/mL"},
      {"measurement": "IL-8 release / IL-8 inducing activity of FSL-1", "setting": "[3]", "value": "reduce IL-8 release"},
      {"measurement": "Effect on wound", "setting": "[5]; 0.1% in salve (DAC-base cream)", "value": "no effect"},
      {"measurement": "Reduction of the diameter of the wound", "setting": "[5]; 1% in salve, after 2 months", "value": 50, "unit": "%"},
      {"measurement": "Wound healing", "setting": "[5]; 1% in salve, after 6 months", "value": "completely healed"},
      {"measurement": "Effect on wound", "setting": "[5]; 1% in salve", "value": "significant effect"},
      {"measurement": "LPS-induced migration of MoDCs and CCR7 gene expression", "setting": "[6]; FIG. 6", "value": "completely blocked"},
      {"measurement": "LPS-mediated upregulation of maturation marker CD83 and co-stimulatory molecule CD80", "setting": "[6]; peptide:LPS weight ratio of 1000:1", "value": "inhibited"},
      {"measurement": "Inhibition of TNFα formation", "setting": "[7]; 10 μg/ml peptide", "value": "more than 50%"},
      {"measurement": "Inhibition of M. tuberculosis-induced TNF formation (in words)", "setting": "[7]", "value": "Does dependent inhibition"},
      {"measurement": "Inhibition of M. tuberculosis-induced TNF formation (in words)", "setting": "[7]; listed as Pep19-2.5", "value": "strongest anti-TNFα activity"}
    ]}
  ]
}
